# Source: US11725000B2, “Apoptosis inhibitors” (National Institute of Biological Sciences, Beijing, priority 2017, dated 2023)
# Tested on: U2OS_Bim cells
# Assay: Apoptosis inhibition assay (Bim-induced apoptosis, cell viability by ATP level)
# Assay type: cell-based
# Conditions: U2OS_Bim cells; means of duplicates; numbering of Tables 4a/4b
# Description: A chemical library containing 200000 compounds was screened according to the following procedure: U2OS_Bim cells (a cell line in which the BH3-only protein Bim can be inducibly expressed by the addition of Doxycycline to the growth medium)^[2] were plated in 384-well plates with 30 μl medium at a density of 500 cells per well. 16 hrs after plating, test compounds were transferred from stock plates to the assay plates with the cultured cells. Positive control (20 μM zVAD) and negative control (DMSO) were added to every plate. 1 hr after compound treatment, 0.1 ug/mL Doxycyclin (DOX) was added to induce the expression of the Bim protein. After 24 hrs, cell viability was determined by measuring the ATP levels using a Cell Titer-Glo kit (Promega, G7570) according to the manufacturer's instructions. Luminescence was recorded with a PerkinElmer EnSpire Multimode Plate Reader. Compounds that could rescue cell viability to a level above 50% were selected; these compounds were then screened a second time for assurance.
# U2OS_Bim or U2OS_tBid cells were plated at a density of 3000 cells per well in 96-well plates. 24 hrs later, cells were treated with experimental compounds, zVAD (positive control) and DMSO (Negative control) for one hour. The cells were then treated with 0.1 μg/mL DOX to trigger apoptosis. 24 hours after the addition of DOX, cell viability was determined by measuring the ATP levels using a Cell Titer-Glo kit. Cell survival rate was calculated.
# U2OS_Bim cells (a U2OS stable cell line transfected with a Bim transgene) were cultured in DMEM culture medium (Gibico). On day one, U2OS_Bim cells were plated in 96-well plates at a density of 3000 cells per well. On day two, cells were pretreated with compounds for one hour. Then cells were treated with 0.1 μg/mL doxycycline (DOX) to trigger apoptosis. 24 hours after DOX treatment, cell viability was determined by measuring the ATP levels using the Cell Titer-Glo kit (G7570, Promega), according to the manufacturer's instructions. Luminescence was recorded with a PerkinElmer EnSpire Multimode Plate Reader. Survived cells were normalized to those cells treated with DMSO. zVAD (20 μM) was used as a positive control. Activity data for compounds […] are represented as means f standard deviation of duplicates; activity data for compounds 187-274 are estimated based on preliminary results.
row,SMILES,EC50
1,"C#CCOc1cc(Cn2cc(-c3cc(C(F)(F)F)nc(S(C)(=O)=O)n3)ccc2=O)ccc1OC [Compound 129, 1-(4-methoxy-3-(prop-2-yn-1-yloxy)benzyl)-5-(2-(methylsulfonyl)-6-(trifluoromethyl)pyrimidin-4-yl)pyridin-2 (1H)-one]",1 to 1000 nM
2,"C#CCOc1ccc(Cn2cc(-c3cc(C(F)(F)F)nc(S(C)(=O)=O)n3)ccc2=O)cc1OC [Compound 130, 1-(3-methoxy-4-(prop-2-yn-1-yloxy)benzyl)-5-(2-(methylsulfonyl)-6-(trifluoromethyl)pyrimidin-4-yl)pyridin-2 (1H)-one]",1 to 1000 nM

# Same assay, conditions: U2OS_Bim cells; means of duplicates; numbering of Tables 4a/4b; read-out: EC50
row,EC50,SMILES
1,1 to 1000 nM,"CS(=O)(=O)c1nc(-c2ccc(=O)n(Cc3cccc(Br)c3)c2)cc(C(F)(F)F)n1 [Compound 107, 1-(3-bromobenzyl)-5-(2-(methylsulfonyl)-6-(trifluoromethyl)pyrimidin-4-yl)pyridin-2 (1H)-one]"
2,1000 to 10000 nM,"CS(=O)(=O)c1nc(-c2ccc(=O)n(Cc3cccc(O)c3)c2)cc(C(F)(F)F)n1 [Compound 108, 1-(3-hydroxybenzyl)-5-(2-(methylsulfonyl)-6-(trifluoromethyl)pyrimidin-4-yl)pyridin-2 (1H)-one]"
3,1 to 1000 nM,"COc1cccc(Cn2cc(-c3cc(C(F)(F)F)nc(S(C)(=O)=O)n3)ccc2=O)c1 [Compound 109, 1-(3-methoxybenzyl)-5-(2-(methylsulfonyl)-6-(trifluoromethyl)pyrimidin-4-yl)pyridin-2 (1H)-one]"
4,1 to 1000 nM,"COc1ccc(Cn2cc(-c3cc(C(F)(F)F)nc(S(C)(=O)=O)n3)ccc2=O)cc1 [Compound 110, 1-(4-Methoxybenzyl)-5-(2-(methylsulfonyl)-6-(trifluoromethyl)pyrimidin-4-yl)pyridin-2 (1H)-one]"
5,1 to 1000 nM,"COc1ccc(Cn2cc(-c3cc(C(F)(F)F)nc([S+](C)[O-])n3)ccc2=O)cc1 (stereo not shown) [Compound 111, 1-(4-Methoxybenzyl)-5-(2-(methylsulfinyl)-6-(trifluoromethyl)pyrimidin-4-yl)pyridin-2 (1H)-one]"
6,1 to 1000 nM,"CCOc1cccc(Cn2cc(-c3cc(C(F)(F)F)nc(S(C)(=O)=O)n3)ccc2=O)c1 [Compound 112, 1-(3-ethoxybenzyl)-5-(2-(methylsulfonyl)-6-(trifluoromethyl)pyrimidin-4-yl)pyridin-2 (1H)-one]"
7,1 to 1000 nM,"CCCOc1cccc(Cn2cc(-c3cc(C(F)(F)F)nc(S(C)(=O)=O)n3)ccc2=O)c1 [Compound 113, 5-(2-(methylsulfonyl)-6-(trifluoromethyl)pyrimidin-4-yl)-1-(3-propoxybenzyl)pyridin-2 (1H)-one]"
8,1000 to 10000 nM,"CCCOc1cccc(Cn2cc(-c3cc(C(F)(F)F)nc([S+](C)[O-])n3)ccc2=O)c1 (stereo not shown) [Compound 114, 5-(2-(methylsulfinyl)-6-(trifluoromethyl)pyrimidin-4-yl)-1-(3-propoxybenzyl)pyridin-2 (11H)-one]"
9,1 to 1000 nM,"C#CCOc1cccc(Cn2cc(-c3cc(C(F)(F)F)nc(S(C)(=O)=O)n3)ccc2=O)c1 [Compound 115, 5-(2-(methylsulfonyl)-6-(trifluoromethyl)pyrimidin-4-yl)-1-(3-(prop-2-yn-1-yloxy)benzyl) pyridin-2 (1H)-one]"
10,1000 to 10000 nM,"C[S+]([O-])c1nc(-c2ccc(=O)n(Cc3ccc(OC(F)(F)F)cc3)c2)cc(C(F)(F)F)n1 (stereo not shown) [Compound 116, 5-(2-(methylsulfinyl)-6-(trifluoromethyl)pyrimidin-4-yl)-1-(4-(trifluoromethoxy)benzyl)pyridin-2 (1H)-one]"
11,1000 to 20000 nM,"CS(=O)(=O)c1nc(-c2ccc(=O)n(Cc3ccc(OC(F)(F)F)cc3)c2)cc(C(F)(F)F)n1 [Compound 117, 5-(2-(methylsulfonyl)-6-(trifluoromethyl)pyrimidin-4-yl)-1-(4-(trifluoromethoxy)benzyl)pyridin-2 (1H)-one]"
12,1000 to 20000 nM,"CS(=O)(=O)c1nc(-c2ccc(=O)n(Cc3cccc(C#N)c3)c2)cc(C(F)(F)F)n1 [Compound 118, 3-((5-(2-(methylsulfonyl)-6-(trifluoromethyl)pyrimidin-4-yl)-2-oxopyridin-1 (2H)-yl)methyl)benzonitrile]"
13,1000 to 10000 nM,"CS(=O)(=O)c1nc(-c2ccc(=O)n(Cc3ccc(C#N)cc3)c2)cc(C(F)(F)F)n1 [Compound 119, 4-((5-(2-(methylsulfonyl)-6-(trifluoromethyl)pyrimidin-4-yl)-2-oxopyridin-1 (2H)-yl)methyl)benzonitrile]"
14,1 to 1000 nM,"C#Cc1cccc(Cn2cc(-c3cc(C(F)(F)F)nc(S(C)(=O)=O)n3)ccc2=O)c1 [Compound 120, 1-(3-ethynylbenzyl)-5-(2-(methylsulfonyl)-6-(trifluoromethyl)pyrimidin-4-yl) pyridin-2 (1H)-one]"
15,1 to 1000 nM,"C#Cc1cccc(Cn2cc(-c3cc(C(F)(F)F)nc([S+](C)[O-])n3)ccc2=O)c1 (stereo not shown) [Compound 121, 1-(3-ethynylbenzyl)-5-(2-(methylsulfinyl)-6-(trifluoromethyl)pyrimidin-4-yl)pyridin-2 (1H)-one]"
16,1 to 1000 nM,"C#Cc1ccc(Cn2cc(-c3cc(C(F)(F)F)nc(S(C)(=O)=O)n3)ccc2=O)cc1 [Compound 122, 1-(4-ethynylbenzyl)-5-(2-(methylsulfonyl)-6-(trifluoromethyl)pyrimidin-4-yl)pyridin-2 (1H)-one]"
17,< 100000 nM,"CS(=O)(=O)c1nc(-c2ccc(=O)n(Cc3ccc(N=[N+]=[N-])cc3)c2)cc(C(F)(F)F)n1 [Compound 123, 1-(4-azidobenzyl)-5-(2-(methylsulfonyl)-6-(trifluoromethyl)pyrimidin-4-yl)pyridin-2 (1H)-one]"
18,1 to 1000 nM,"CS(=O)(=O)c1nc(-c2ccc(=O)n(Cc3ccc(Cl)cc3F)c2)cc(C(F)(F)F)n1 [Compound 124, 1-(4-chloro-2-fluorobenzyl)-5-(2-(methylsulfonyl)-6-(trifluoromethyl)pyrimidin-4-yl)pyridin-2 (1H)-one]"
19,1000 to 10000 nM,"C[S+]([O-])c1nc(-c2ccc(=O)n(Cc3ccc(Cl)cc3F)c2)cc(C(F)(F)F)n1 (stereo not shown) [Compound 125, 1-(4-chloro-2-fluorobenzyl)-5-(2-(methylsulfinyl)-6-(trifluoromethyl)pyrimidin-4-yl)pyridin-2 (1H)-one]"
20,1 to 1000 nM,"COc1ccc(Cn2cc(-c3cc(C(F)(F)F)nc(S(C)(=O)=O)n3)ccc2=O)c(Cl)c1 [Compound 126, 1-(2-chloro-4-methoxybenzyl)-5-(2-(methylsulfonyl)-6-(trifluoromethyl)pyrimidin-4-yl)pyridin-2 (1H)-one]"
21,1 to 1000 nM,"COc1ccc(Cn2cc(-c3cc(C(F)(F)F)nc(S(C)(=O)=O)n3)ccc2=O)cc1OC [Compound 127, 1-(3,4-dimethoxybenzyl)-5-(2-(methylsulfonyl)-6-(trifluoromethyl)pyrimidin-4-yl)pyridin-2 (1H)-one]"
22,1 to 1000 nM,"COc1ccc(Cn2cc(-c3cc(C(F)(F)F)nc([S+](C)[O-])n3)ccc2=O)cc1OC (stereo not shown) [Compound 128, 1-(3,4-dimethoxybenzyl)-5-(2-(methylsulfinyl)-6-(trifluoromethyl)pyrimidin-4-yl)pyridin-2 (1H)-one]"
23,1 to 1000 nM,"CS(=O)(=O)c1nc(-c2ccc(=O)n(Cc3ccc(-c4ccccc4)cc3)c2)cc(C(F)(F)F)n1 [Compound 131, 1-([1,1′-biphenyl]-4-ylmethyl)-5-(2-(methylsulfonyl)-6-(trifluoromethyl)pyrimidin-4-yl)pyridin-2 (1H)-one]"
